For experiment [1], the target named is T1, Human 5HT1A receptor (Homo sapiens, UniProt P08908).
T1 construct: expressed in transfected cells; host or cells: L929 cells (stably transfected)
T1 sequence (P08908 1-422): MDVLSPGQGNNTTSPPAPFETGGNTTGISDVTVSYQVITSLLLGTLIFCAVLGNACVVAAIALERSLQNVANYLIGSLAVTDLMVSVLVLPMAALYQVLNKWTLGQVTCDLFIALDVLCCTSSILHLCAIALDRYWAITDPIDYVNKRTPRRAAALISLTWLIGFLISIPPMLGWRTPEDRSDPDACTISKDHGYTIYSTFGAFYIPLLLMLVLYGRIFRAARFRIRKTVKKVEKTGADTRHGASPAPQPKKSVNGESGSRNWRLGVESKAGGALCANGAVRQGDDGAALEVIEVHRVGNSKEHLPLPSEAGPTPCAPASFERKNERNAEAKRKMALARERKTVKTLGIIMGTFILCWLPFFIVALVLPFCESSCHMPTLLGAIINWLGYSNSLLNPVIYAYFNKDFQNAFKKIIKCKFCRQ
As to the kind of experiment: Binding experiment for 5-HT1A receptor, [3H]8OHDPAT. Conditions: membranes of 5HT1A receptor-transfected L929 cells, read-out: pIC50 5HT1A (converted). As to the method:
(§1) The interaction of the compounds of Formula (I) with dopamine-receptors, h5HT-transporter and h5HT1A receptor was assessed in in vitro radioligand binding experiments. In general, a low concentration of a radioligand with a high binding affinity for a particular receptor or transporter is incubated with a sample of a tissue preparation enriched in a particular receptor or transporter or with a preparation of cells expressing cloned human receptors in a buffered medium. During the incubation, the radioligand binds to the receptor or transporter. When equilibrium of binding is reached, the receptor bound radioactivity is separated from the non-bound radioactivity, and the receptor- or transporter-bound activity is counted The interaction of the test compounds with the receptor is assessed in competition binding experiments. Various concentrations of the test compound are added to the incubation mixture containing the receptor- or transporter preparation and the radioligand. The test compound in proportion to its binding affinity and its concentration inhibits binding of the radioligand.
Human 5HT1A receptor-transfected L929 cells were collected by scraping into ice-cold Tris-HCl buffer (50 mM, pH 7.4). The suspension was centrifuged (23 500×g, 10 min, 4° C.) and pellets stored at −70° C. until required. They were then thawed and briefly homogenised using an Ultra-Turrax T25 homogeniser prior to dilution to an appropriate protein concentration optimised for specific and non-specific binding. [^3H]8OHDPAT (NEN, specific activity 127 Ci/mmol) was diluted in Tris-HCl assay buffer containing CaCl2 (50 mM and 4 mM, respectively; pH 7.7) at a concentration of 5 nmol/L. Prepared radioligand (50 μl) was then incubated (30 min, 37° C.) with membrane preparations from L929 cells stably-transfected with the h5HT1A gene construct (400 μl) and with 50 μl of either the 10% DMSO control, spiroxatrine (10^−6 mol/L final concentration), or compound of interest. Membrane-bound activity was detected by filtration through a Packard Filtermate harvester onto Unifaltemplates, washing with ice-cold Tris-HCI buffer (3×4 ml), followed by drying. Scintillation fluid was added and membranes were counted in a Topcount scintillation counter. % Specific bound and competition binding curves were calculated using S-Plus software (Insightful).

Experiment [2] addresses T2, Human Dopamine D4 receptor (Homo sapiens, UniProt P21917).
T2 construct: expressed in transfected cells; host or cells: Sf9 cells
T2 sequence (P21917 1-419): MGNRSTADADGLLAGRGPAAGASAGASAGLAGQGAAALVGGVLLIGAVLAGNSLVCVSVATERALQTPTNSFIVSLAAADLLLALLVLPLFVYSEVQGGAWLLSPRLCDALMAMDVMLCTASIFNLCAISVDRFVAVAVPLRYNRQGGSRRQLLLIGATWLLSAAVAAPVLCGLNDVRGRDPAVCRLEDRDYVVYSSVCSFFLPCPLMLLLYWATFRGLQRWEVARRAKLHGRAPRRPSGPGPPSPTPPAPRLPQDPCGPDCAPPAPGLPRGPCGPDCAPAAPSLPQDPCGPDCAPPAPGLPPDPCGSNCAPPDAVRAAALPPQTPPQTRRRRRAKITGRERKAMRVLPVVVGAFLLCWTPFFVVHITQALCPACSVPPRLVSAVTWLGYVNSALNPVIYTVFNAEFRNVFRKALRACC
As to the kind of experiment: Radioligand binding experiment for dopamine D4 receptor (hD4), [125I]Spiperone. The settings on record: membranes of D4 receptor-transfected Sf9 cells, read-out: pIC50 D4 (converted). Here is the method:
as §1, with “The test compound in proportion to its binding affinity and its concentration inhibits binding of the radioligand.” left out
Human Dopamine D4 receptor-transfected Sf9 cells were collected by scraping into ice-cold Tris-HCl buffer (50 mM, pH 7.4). […] Filters were allowed to dry before adding scintillation fluid and counting in a Topcount scintillation counter. % Specific bound and competition binding curves were calculated using S-Plus software (Insightful).

Experiment [3] concerns the target T3, human 5HT transporter (Homo sapiens, UniProt P31645).
T3 construct: host or cells: HEK cells
As to the kind of experiment: Binding experiment for 5-HT transporter, [3H]Paroxetine. Conditions: 5HT transporter-transfected HEK cells, [3H]Paroxetine binding; read-out: pIC50 5HT reuptake inhibition (converted). Here is the method: as §1
Frozen human 5HT transporter-transfected HEK cells (Perkin Elmer, Brussels) were thawed and briefly homogenised using an Ultra-Turrax T25 homogeniser prior to dilution to an appropriate protein concentration optimised for specific and non-specific binding. [^3H]Paroxetine (NEN, specific activity 20 Ci/mmol) was diluted in Tris-HCl assay buffer containing NaCl and KCl (50 mM 120 mM and 5 mM, respectively; pH 7.4) at a concentration of 5 nmol/L. Prepared radioligand (25 μl) was then incubated (60 min, 25° C.) with membrane preparations (200 μl) and with 25 μl of either 10% DMSO control, Imipramine (10^−6 mol/L final concentration), or compound of interest Membrane-bound activity was detected by filtration through a Packard Filtermate harvester onto Unifilterplates pre-soaked in 0.1% PEI, washing with ice-cold assay buffer (3×4 ml). Filters were dried prior to addition of scintillation fluid and then counting in a Topcount scintillation counter. % Specific bound and competition binding curves were calculated using S-Plus software (Insightful).

The values below come from patent publication US20070066608A1, “Novel indole derivatives with an improved antipsychotic activity” (priority 2003, published 2007).

T3 sequence (P31645 whole entry): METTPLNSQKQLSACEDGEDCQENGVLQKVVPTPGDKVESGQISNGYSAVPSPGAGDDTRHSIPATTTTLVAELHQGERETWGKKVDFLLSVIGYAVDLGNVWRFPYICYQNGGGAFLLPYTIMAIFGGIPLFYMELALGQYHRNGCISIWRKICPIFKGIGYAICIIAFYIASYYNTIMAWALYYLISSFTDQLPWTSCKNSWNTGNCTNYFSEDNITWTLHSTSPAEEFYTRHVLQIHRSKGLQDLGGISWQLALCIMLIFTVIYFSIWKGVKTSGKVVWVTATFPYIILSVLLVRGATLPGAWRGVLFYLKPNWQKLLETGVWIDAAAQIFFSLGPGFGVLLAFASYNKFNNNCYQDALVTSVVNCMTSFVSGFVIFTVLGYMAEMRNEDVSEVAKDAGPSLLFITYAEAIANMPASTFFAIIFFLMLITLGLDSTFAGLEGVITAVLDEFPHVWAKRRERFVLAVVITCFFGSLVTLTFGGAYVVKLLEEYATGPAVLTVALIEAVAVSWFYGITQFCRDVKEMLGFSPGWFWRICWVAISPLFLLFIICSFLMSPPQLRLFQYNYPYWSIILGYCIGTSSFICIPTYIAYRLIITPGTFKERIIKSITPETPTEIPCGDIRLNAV

Regarding `Fc1ccc2[nH]cc(C3=CCN(CC4Oc5cccnc5O4)CC3)c2c1` (stereo not drawn) [Compound 7], the figures for the IC50 in experiment [1], in experiment [2] and in experiment [3] were 398 nM, 501 nM and above 1000 nM, respectively.
